The target in this experiment is T1, hP2X4 (human purinergic P2X receptor subtype 4) (Homo sapiens, UniProt Q99571).
T1 sequence (Q99571 1-404 isoform Q99571-2): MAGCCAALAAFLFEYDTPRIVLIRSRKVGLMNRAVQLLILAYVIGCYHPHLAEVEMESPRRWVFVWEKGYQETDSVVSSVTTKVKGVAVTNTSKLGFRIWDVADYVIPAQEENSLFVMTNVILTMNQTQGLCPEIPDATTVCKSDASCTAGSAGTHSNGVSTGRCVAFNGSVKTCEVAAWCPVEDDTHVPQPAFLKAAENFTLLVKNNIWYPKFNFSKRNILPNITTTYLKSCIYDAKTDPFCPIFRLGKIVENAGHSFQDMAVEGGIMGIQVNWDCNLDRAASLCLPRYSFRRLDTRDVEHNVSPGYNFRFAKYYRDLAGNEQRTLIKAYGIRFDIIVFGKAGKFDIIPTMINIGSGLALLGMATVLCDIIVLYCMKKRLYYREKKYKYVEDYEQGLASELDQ
The conditions noted are these: P2X4 IC50 (nM), HEK293 cells stably expressing hP2X4; agonist BZ-ATP 2.5 μM; FLIPR calcium.

Procedure: Cells at 400,000 cells/mL were seeded into a 384-well plate (10,000 cells/well) 18-24 h prior to the FLIPR experiment and then incubated overnight in a cell incubator. […] Each well was added with 20 μL of 0.5×Calcium 6 fluorescent dye (Molecular Devices, R8190) and then the cells were subjected to dye-loading incubation at 37° C. for 1.5 h. Each well was added with 10 μL of respective test compound (dissolved in DMSO at a concentration of 10 mM and serially diluted with buffer) or vehicle and the mixture was equilibrated for 30 min at room temperature.

What is called IC50 is the concentration that inhibits the measured activity by half. As to `CN(C)c1ccc2c(S(N)(=O)=O)cc(NC(=O)Cc3ccccc3Cl)cc2n1` [Compound 88, 2-(2-chlorophenyl)-N-(2-(dimethylamino)-5-sulfamoylquinolin-7-yl)acetamide], the IC50 was in the range of 50 to 200 nM.

In the case of `COC(=O)N1CCc2c(cc(NC(=O)Cc3ccccc3Cl)cc2S(N)(=O)=O)C1` [Compound 99, methyl 7-(2-(2-chlorophenyl)acetamido)-5-sulfamoyl-3,4-dihydroisoquinoline-2(1H)-carboxylate], the IC50 was in the range of 10 to 50 nM.

Turning to `NS(=O)(=O)c1cc(NC(=O)Cc2ccccc2Cl)cc2cnc(Cl)cc12` [Compound 5, N-(3-chloro-5-sulfamoylisoquinolin-7-yl)-2-(2-chlorophenyl)acetamide], the IC50 was in the range of 50 to 200 nM.

As for `NS(=O)(=O)c1cc(NC(=O)Cc2ccccc2Cl)cc2ncccc12` [Compound 4, 2-(2-chlorophenyl)-N-(5-sulfamoylquinolin-7-yl)acetamide], the IC50 lay in the range of 10 to 50 nM.

Consider `NS(=O)(=O)c1cc(NC(=O)Cc2ccccc2Cl)cc2c1CCN(c1ccc(C(F)(F)F)cn1)C2` [Compound 117, 2-(2-chlorophenyl)-N-(5-sulfamoyl-2-(5-(trifluoromethyl)pyridin-2-yl)-1,2,3,4-tetrahydroisoquinolin-7-yl)acetamide], for which the IC50 lay within 10 to 50 nM.

Take `NS(=O)(=O)c1cc(NC(=O)Cc2ccccc2Cl)cc2cccnc12` [Compound 37, 2-(2-chlorophenyl)-N-(8-sulfamoylquinolin-6-yl)acetamide]: the IC50 is 10 to 50 nM.

`NS(=O)(=O)c1cc(NC(=O)Cc2ccccc2Cl)cc2c(C3CC3)nccc12` [Compound 23, 2-(2-chlorophenyl)-N-(1-cyclopropyl-5-sulfamoylisoquinolin-7-yl)acetamide]: the IC50 was less than 10 nM.

Turning to `NS(=O)(=O)c1cc(NC(=O)Cc2ccccc2Cl)cc2c1CCN(CC1CC1)C2` [Compound 111], the half-inhibitory concentration (IC50) lay in the range of 200 to 5000 nM.

On to `NS(=O)(=O)c1cc(NC(=O)Cc2ccccc2Cl)cc2c1CCN(C(=O)C1CC1)C2` [Compound 108], for which the half-maximal inhibitory concentration (IC50) was less than 10 nM.

As to `NS(=O)(=O)c1cc(NC(=O)Cc2ccccc2Cl)cc2cnc(F)cc12` [Compound 7, 2-(2-chlorophenyl)-N-(3-fluoro-5-sulfamoylisoquinolin-7-yl)acetamide], the IC50 fell in the range of 50 to 200 nM.

As to `NS(=O)(=O)c1cc(NC(=O)Cc2ccccc2Cl)cc2nc(OCCO)ccc12` [Compound 66, 2-(2-chlorophenyl)-N-(2-(2-hydroxyethoxy)-5-sulfamoylquinolin-7-yl)acetamide], the IC50 lay in the range of 50 to 200 nM.

Consider `NS(=O)(=O)c1cc(NC(=O)Cc2ccccc2Cl)cc2c(OC3CNC3)nccc12` [Compound 12, N-(1-(azetidin-3-oxy)-5-sulfamoylisoquinolin-7-yl)-2-(2-chlorophenyl)acetamide], for which the IC50 lay within 10 to 50 nM.

For the compound `NS(=O)(=O)c1cc(NC(=O)Cc2ccccc2Cl)cc2cnc(OCCO)cc12` [Compound 76, 2-(2-chlorophenyl)-N-(3-(2-hydroxyethoxy)-5-sulfamoylisoquinolin-7-yl)acetamide], the IC50 is 50 to 200 nM.

`COc1ccc(Nc2cc3c(S(N)(=O)=O)cc(NC(=O)Cc4ccccc4Cl)cc3cn2)cc1` [Compound 81, 2-(2-chlorophenyl)-N-(3-((4-methoxyphenyl)amino)-5-sulfamoylisoquinolin-7-yl)acetamide]: the IC50 is 200 to 5000 nM.

For `NS(=O)(=O)c1cc(NC(=O)Cc2ccccc2Cl)cc2c1CCN(C(Cl)Cl)C2` [Compound 115, 2-(2-chlorophenyl)-N-(2-(dichloromethyl)-sulfamoyl-1,2,3,4-tetrahydroisoquinolin-7-yl)acetamide], the 50% inhibitory concentration (IC50) fell in the range of 200 to 5000 nM.

With `C#Cc1ccc2c(S(N)(=O)=O)cc(NC(=O)Cc3ccccc3Cl)cc2n1` [Compound 86, 2-(2-chlorophenyl)-N-(2-ethynyl-5-sulfamoylquinolin-7-yl)acetamide], the IC50 was in the range of 200 to 5000 nM.

With `COc1ccc(Oc2nccc3c(S(N)(=O)=O)cc(NC(=O)Cc4ccccc4Cl)cc23)cc1` [Compound 35, 2-(2-chlorophenyl)-N-(1-(4-methoxyphenoxy)-5-sulfamoylisoquinolin-7-yl)acetamide], the IC50 lay in the range of 10 to 50 nM.

As for `NS(=O)(=O)c1cc(NC(=O)Cc2ccccc2Cl)cc2c(Oc3ccccc3)nccc12` [Compound 30, 2-(2-chlorophenyl)-N-(1-phenoxy-5-sulfamoylisoquinolin-7-yl)acetamide], the IC50 lay in the range of 10 to 50 nM.

`NS(=O)(=O)c1cc(NC(=O)Cc2ccccc2Cl)cc2ccc(F)nc12` [Compound 38, 2-(2-chlorophenyl)-N-(2-fluoro-8-sulfamoylquinolin-6-yl)acetamide]: the IC50 was 50 to 200 nM.

Regarding `CC(=O)N1CC(Oc2nccc3c(S(N)(=O)=O)cc(NC(=O)Cc4ccccc4Cl)cc23)C1` [Compound 33, N-(1-((1-acetylazetidin-3-yl)oxo)-5-sulfamoylisoquinolin-7-yl)-2-(2-chlorophenyl)acetamide], the IC50 was in the range of 10 to 50 nM.

With `COc1nccc2c(S(N)(=O)=O)cc(NC(=O)Cc3ccc(F)cc3Cl)cc12` [Compound 94, 2-(2-chloro-4-fluorophenyl)-N-(1-methoxy-5-sulfamoylisoquinolin-7-yl)acetamide], the IC50 lay within 50 to 200 nM.

`CCN1CCc2c(cc(NC(=O)Cc3ccccc3Cl)cc2S(N)(=O)=O)C1` [Compound 109, 2-(2-chlorophenyl)-N-(2-ethyl-5-sulfamoyl-1,2,3,4-tetrahydroisoquinolin-7-yl)acetamide]: the IC50 fell in the range of 200 to 5000 nM.

Consider `NS(=O)(=O)c1cc(NC(=O)Cc2ccccc2Cl)cc2cnc(N3CCOCC3)cc12` [Compound 78, 2-(2-chlorophenyl)-N-(3-morpholino-5-sulfamoylisoquinolin-7-yl)acetamide], for which the IC50 was 50 to 200 nM.

As for `NS(=O)(=O)c1cc(NC(=O)Cc2ccccc2Cl)cc2c1CCN(C(=O)C1CCC1)C2` [Compound 107], the half-maximal inhibitory concentration (IC50) lay within 10 to 50 nM.

Regarding `COc1ccc(F)cc1CC(=O)Nc1cc(S(N)(=O)=O)c2ccnc(OC)c2c1` [Compound 95, 2-(5-fluoro-2-methoxyphenyl)-N-(1-methoxy-5-sulfamoylisoquinolin-7-yl)acetamide], the IC50 lay in the range of 200 to 5000 nM.

For `NS(=O)(=O)c1cc(NC(=O)Cc2ccccc2Cl)cc2nc(N3CCOCC3)ccc12` [Compound 68, 2-(2-chlorophenyl)-N-(2-morpholino-5-sulfamoylquinolin-7-yl)acetamide], the IC50 lay in the range of 50 to 200 nM.

Regarding `COc1ccc2c(S(N)(=O)=O)cc(NC(=O)Cc3ccccc3Cl)cc2n1` [Compound 65, 2-(2-chlorophenyl)-N-(2-methoxy-5-sulfamoylquinolin-7-yl)acetamide], the IC50 lay in the range of 10 to 50 nM.

For `NS(=O)(=O)c1cc(NC(=O)Cc2ccccc2Cl)cc2ccncc12` [Compound 45, 2-(2-chlorophenyl)-N-(8-sulfamoylisoquinolin-6-yl)acetamide], the IC50 is 50 to 200 nM.

Take `CCOc1nccc2c(S(N)(=O)=O)cc(NC(=O)Cc3ccccc3Cl)cc12` [Compound 8, 2-(2-chlorophenyl)-N-(1-ethoxy-5-sulfamoylisoquinolin-7-yl)acetamide]: the IC50 lay in the range of 10 to 50 nM.

Consider `CN1CCc2c(cc(NC(=O)Cc3ccccc3Cl)cc2S(N)(=O)=O)C1` [Compound 112, 2-(2-chlorophenyl)-N-(2-methyl-5-sulfamoyl-1,2,3,4-tetrahydroisoquinolin-7-yl)acetamide], for which the half-maximal inhibitory concentration (IC50) fell in the range of 10 to 50 nM.

Turning to `NS(=O)(=O)c1cc(NC(=O)Cc2ccccc2Cl)cc2c(OC3CC3)nccc12` [Compound 10, 2-(2-chlorophenyl)-N-(1-cyclopropoxy-5-sulfamoylisoquinolin-7-yl)acetamide], the half-inhibitory concentration (IC50) was in the range of 10 to 50 nM.

On to `NS(=O)(=O)c1cc(NC(=O)Cc2ccccc2Cl)cc2c(Cl)nccc12` [Compound 2, N-(1-chloro-5-sulfamoylisoquinolin-7-yl)-2-(2-chlorophenyl)acetamide], for which the IC50 is 10 to 50 nM.

In the case of `NS(=O)(=O)c1cc(NC(=O)Cc2ccccc2Cl)cc2cnc(-n3ccnc3)cc12` [Compound 22, N-(3-(1H-imidazol-1-yl)-5-sulfamoylisoquinolin-7-yl)-2-(2-chlorophenyl)acetamide], the IC50 is 10 to 50 nM.

`C=CC(F)(F)N1CCc2c(cc(NC(=O)Cc3ccccc3Cl)cc2S(N)(=O)=O)C1` [Compound 119, 2-(2-chlorophenyl)-N-(2-(1,1-difluoroallyl)-5-sulfamoyl-1,2,3,4-tetrahydroisoquinolin-7-yl)acetamide]: the IC50 lay within 200 to 5000 nM.

For `COc1nccc2c(S(N)(=O)=O)cc(NC(=O)Cc3cc(F)ccc3Cl)cc12` [Compound 93, 2-(2-Chloro-5-fluorophenyl)-N-(1-methoxy-5-sulfamoylisoquinolin-7-yl)acetamide], the IC50 was 50 to 200 nM.

`COc1nccc2c(S(N)(=O)=O)cc(NC(=O)Cc3c(O)cccc3Cl)cc12` [Compound 62, 2-(2-chloro-6-hydroxyphenyl)-N-(1-methoxy-5-sulfamoylisoquinolin-7-yl)acetamide]: the concentration for half-maximal inhibition (IC50) lay in the range of 200 to 5000 nM.

Regarding `NS(=O)(=O)c1cc(NC(=O)Cc2ccccc2Cl)cc2c(OCC3CC3)nccc12` [Compound 16], the IC50 lay in the range of 10 to 50 nM.

Regarding `CC(=O)N1CCc2c(cc(NC(=O)Cc3ccccc3Cl)cc2S(N)(=O)=O)C1` [Compound 102, N-(2-acetyl-5-sulfamoyl-1,2,3,4-tetrahydroisoquinolin-7-yl)-2-(2-chlorophenyl)acetamide], the IC50 lay in the range of 10 to 50 nM.

`COc1ccc(Oc2cc3c(S(N)(=O)=O)cc(NC(=O)Cc4ccccc4Cl)cc3cn2)cc1` [Compound 82, 2-(2-chlorophenyl)-N-(3-(4-methoxyphenoxy)-5-sulfamoylisoquinolin-7-yl)acetamide]: the IC50 lay in the range of 200 to 5000 nM.

The values are drawn from patent publication US12692235B2, “Fused ring compound and application thereof” (WUHAN LL SCIENCE AND TECHNOLOGY DEVELOPMENT CO., LTD., priority 2019, dated 2026).
